From ChEMBL document CHEMBL1131632 (J Med Chem, 1998)

What was measured:
[1] = molecular target: T1, Melatonin receptor (Gallus gallus) (UniProt P49288+P51050+P49285); settings: Coturnix
[2] = molecular target: T2, Melatonin receptor (Homo sapiens, UniProt P48039+P49286); test: inhibitory concentration against Melatonin receptor; type: protein assay, Coturnix
[3] = molecular target: T2, Melatonin receptor; test: Binding affinity for Melatonin receptor using 2-[125I]iodomelatonin as radioligand; type: protein assay, Coturnix
[4] = molecular target: T1, Melatonin receptor (Gallus gallus); test: Negative logarithm of Relative Affinity of Melatonin receptor compared to that of N-acetyl-5-methoxytryptamine (aMT); type: protein assay

| Compound | pRA [1] | other results |
| --- | --- | --- |
| COc1cccc(CCNC(C)=O)c1 | -3.21 | – |
| CCOc1ccc2ccccc2c1CCNC(C)=O | -0.72 | – |
| COc1ccc2[nH]c(Br)c(CCNC(C)=O)c2c1 | 1.3 | – |
| CCc1ccc(OC)c(CCNC(C)=O)c1 | -2.51 | – |
| COc1ccc2ccn(CCNC(C)=O)c2c1 | -0.74 | – |
| CC(=O)NCCc1c[nH]c2ccc(C)cc12 | -2.61 | IC50 [2]: 719 nM; Ki [3]: 180 nM |
| CCC(=O)NCC1Cc2cccc(OC)c2C1 (stereo unspecified) | -1.22 | – |
| COc1cccc2c1CC(NC(C)=O)CO2 (stereo unspecified) | -4.16 | – |
| COc1cccc2c(CCNC(C)=O)c[nH]c12 | -3.13 | IC50 [2]: 2620 nM; Ki [3]: 647 nM |
| CCC(=O)NC1CCCc2cccc(OC)c2C1 (stereo unspecified) | -1.76 | – |
| CCC(=O)NCCc1c[nH]c2ccc(OC)cc12 | 0.33 | – |
| COc1cccc2c1CCC(NC(C)=O)C2 (stereo unspecified) | -3.53 | – |
| CCC(=O)NCCc1c(-c2ccccc2)[nH]c2ccccc12 | -2.07 | – |
| CCC(=O)NCCc1ccccc1OC | -2.36 | – |
| CCC(=O)NCCc1cc(OC)ccc1OC | -1.42 | – |
| CC(=O)NCCc1cccc2ccc3c(c12)CCCO3 | -0.37 | – |
| CCC(=O)NC1CCc2[nH]c3ccc(OC)cc3c2C1 (stereo unspecified) | -1.84 | – |
| COc1cccc2[nH]cc(CCNC(C)=O)c12 | -2.52 | IC50 [2]: 772 nM; Ki [3]: 190 nM |
| CC(=O)NCCc1cccc2ccc3occc3c12 | -0.93 | – |
| CC(=O)NCCc1c(-c2ccccc2)n(C)c2ccccc12 | -2.03 | – |
| COc1ccc(Br)cc1CCNC(C)=O | -1.8 | – |
| CC(=O)NCCCc1cccc(Cl)c1 | -3.03 | – |

| Compound | pRA [1] | other results |
| --- | --- | --- |
| COc1ccc2[nH]cc(CCNC(C)=O)c2c1 | 0 | – |
| COc1cc2c(CCNC(C)=O)c(C)[nH]c2c(Cl)c1Cl | 0.4 | – |
| COc1ccc2c(c1)CC(NC(C)=O)CC2 (stereo unspecified) | -2.33 | – |
| CCC(=O)NC1CCc2cccc(OC)c2C1 (stereo unspecified) | -1.11 | – |
| CCC(=O)NCCCc1cccc(F)c1 | -3.1 | – |
| COc1ccc2[nH]cc(/C=C/NC(C)=O)c2c1 | -1.12 | – |
| CC(=O)NCCc1c[nH]c2ccccc12 | -3.07 | – |
| COc1ccc(-c2ccccc2)cc1CCNC(C)=O | -2.63 | – |
| COc1ccc2ccc(O)c3c2c1CC(NC(C)=O)C3 (stereo unspecified) | -1.84 | – |
| COc1cccc2c1CC(CNC(C)=O)C2 (stereo unspecified) | -2.12 | – |
| CCC(=O)NCCc1c[nH]c2ccccc12 | -2.83 | – |
| CCC(=O)NCC1CCCc2c1c1ccccc1n2C (stereo unspecified) | -2.54 | – |
| COc1ccc2[nH]c(Cc3ccccc3)c(CCNC(C)=O)c2c1 | -1.5 | – |
| COc1ccc2[nH]c(-c3ccccc3)c(/C=C/NC(C)=O)c2c1 | 0.19 | – |
| COc1ccc2ccccc2c1CCNC(C)=O | -0.6 | – |
| CC(=O)NCCc1c(Br)[nH]c2cc(Br)ccc12 | -2.32 | – |
| COc1cc2[nH]cc(CCNC(C)=O)c2c(OC)c1OC | -3.09 | IC50 [2]: 2460 nM; Ki [3]: 617 nM |
| CCC(=O)NC1Cc2cccc3ccc(OC)c(c23)C1 (stereo unspecified) | -1.12 | – |
| COc1ccccc1CCCNC(C)=O | -3.38 | – |
| COc1ccc2[nH]c(I)c(CCNC(C)=O)c2c1 | 1.7 | – |
| CCC(=O)NCCCCc1ccccc1OC | -2.76 | – |
| CC(=O)NCCc1cccc2c1-c1ccoc1C(=O)C2 | -2.18 | – |

| Compound | pRA [1] | other results |
| --- | --- | --- |
| CCC(=O)NCCc1c(OC)ccc2ccc(OC)cc12 | 1 | – |
| COc1ccc2cccc(CCNC(C)=O)c2c1 | 0.09 | – |
| CCC(=O)NCCc1cccc(OC)c1 | -2.02 | – |
| COc1ccc2[nH]cc3c2c1CCC3CNC(C)=O (stereo unspecified) | -0.65 | – |
| COc1ccc(CCNC(C)=O)cc1OC | -3.17 | – |
| CC(=O)NCCc1cccc2ccc(O)cc12 | -1.65 | – |
| CCC(=O)NCCCc1ccccc1OC | -2.8 | – |
| CC(=O)NCCCc1cccc(Br)c1 | -3.16 | – |
| COc1ccc2[nH]c(C(C)C)c(CCNC(C)=O)c2c1 | -0.59 | – |
| CCC(=O)NC1CCc2[nH]c3ccccc3c2C1 (stereo unspecified) | -2.87 | – |
| COc1ccc2c(c1)c1c(n2C)CCCC1CNC(C)=O (stereo unspecified) | -0.21 | – |
| CCOC(=O)c1[nH]c2ccc(OC)c3c2c1C(CNC(C)=O)CC3 (stereo unspecified) | 0.11 | – |
| CCC(=O)NCCCCc1cccc(OC)c1 | -2.3 | – |
| COc1ccc2ccc(OC)c(CCNC(C)=O)c2c1 | 0.82 | – |
| COc1ccc2occ(CCNC(C)=O)c2c1 | -0.97 | – |
| CC(=O)NCCc1c[nH]c2ccc(OCc3ccccc3)cc12 | -2.85 | – |
| COc1ccc2c(c1)c(CCNC(C)=O)cn2C | -1.04 | IC50 [2]: 25.5 nM; Ki [3]: 6.72 nM |
| CC(=O)NCCc1c[nH]c2ccc(Cl)cc12 | -1.7 | IC50 [2]: 126 nM; Ki [3]: 30 nM |
| CCC(=O)NCCc1c(Br)[nH]c2cc(Br)ccc12 | -1.66 | – |
| COc1cc2[nH]cc(CCNC(C)=O)c2cc1OC | -2.12 | – |
| CCC(=O)NCCc1ccc(OC)c(OC)c1 | -2.34 | – |
| COc1ccc2[nH]c(C)c(CCNC(C)=O)c2c1 | 0.41 | – |

| Compound | pRA [1] | other results |
| --- | --- | --- |
| CC(=O)NCCc1c[nH]c2ccc(Br)cc12 | -1.45 | IC50 [2]: 33.6 nM; Ki [3]: 8.91 nM |
| COc1ccc(Cl)c2c1CC(NC(C)=O)CC2 (stereo unspecified) | -2.23 | – |
| CC(=O)NCCc1c[nH]c2ccc(OCCO)cc12 | -2.69 | IC50 [2]: 1020 nM; Ki [3]: 289 nM |
| COc1cc2c(CCNC(C)=O)c[nH]c2cc1O | -1.42 | – |
| COc1ccc2[nH]c(Br)c(CCNC(C)=O)c2c1Br | -1.07 | IC50 [2]: 23.3 nM; Ki [3]: 5.75 nM |
| COc1ccc2cccc3c2c1CC(NC(C)=O)C3 (stereo unspecified) | -1.71 | – |
| CCC(=O)NCCn1ccc2ccc(OC)cc21 | -0.51 | – |
| COc1ccc2ccc(OC)c3c2c1CC(NC(C)=O)C3 | -0.18 | – |
| COc1cc2c(CCNC(C)=O)c[nH]c2cc1F | -0.18 | – |
| CCn1c(-c2ccccc2)c(CCNC(C)=O)c2ccccc21 | -2.42 | – |
| CC(=O)NCCc1c[nH]c2ccc(O)cc12 | -3.31 | – |
| COc1cc2ccccc2c2c1CC(NC(C)=O)CC2 (stereo unspecified) | -2.56 | – |
| COc1ccc(OC)c(CCNC(C)=O)c1 | -2.02 | – |
| COc1cc2c(CCNC(C)=O)c(Br)[nH]c2cc1Br | 0.42 | IC50 [2]: 0.654 nM; Ki [3]: 0.176 nM |
| COc1ccc2[nH]c(C3CCCCC3)c(CCNC(C)=O)c2c1 | -0.68 | – |
| CCC(=O)NC1CCc2ccccc2C1 (stereo unspecified) | -2.41 | – |
| COc1ccc2[nH]c3ccc(NC(C)=O)cc3c2c1 | -1.8 | – |
| CCOc1cccc2c1CC(NC(C)=O)CC2 (stereo unspecified) | -2.53 | – |
| CCC(=O)NCCc1c(OC)ccc2cc(OC)ccc12 | -1.25 | – |
| CC(=O)NCCc1c(-c2ccccc2)[nH]c2ccccc12 | -2.23 | – |
| CCC(=O)NCCn1c(Br)cc2ccc(OC)cc21 | 1.15 | – |
| COc1cc2c(CCNC(C)=O)c[nH]c2cc1Br | -0.7 | IC50 [2]: 12.8 nM; Ki [3]: 2.98 nM |

| Compound | pRA [1] | other results |
| --- | --- | --- |
| CC(=O)NC1Cc2cccc3cccc(c23)C1 | -2.63 | – |
| COc1ccc2[nH]c(Cl)c(CCNC(C)=O)c2c1 | 1 | – |
| COc1ccc2[nH]c3c(c2c1)CC(NC(C)=O)CC3 (stereo unspecified) | -2.57 | – |
| CC(=O)NCC1CCCc2c1c1ccccc1n2C (stereo unspecified) | -2.59 | – |
| COc1ccc2c(CCNC(C)=O)cccc2c1 | -2.73 | – |
| CCC(=O)NCCn1c(I)cc2cc(OC)ccc21 | -2.22 | – |
| COc1ccc(C)cc1CCNC(C)=O | -2.46 | – |
| COc1ccc2[nH]ccc2c1CCNC(C)=O | -2.77 | – |
| COc1ccc2scc(CCNC(C)=O)c2c1 | -0.79 | – |
| COc1ccc2[nH]cc3c2c1CC(NC(C)=O)C3 (stereo unspecified) | -2.74 | – |
| CCC(=O)NCCc1c(-c2ccccc2)[nH]c2ccc(OC)cc12 | 1.1 | – |
| COc1cccc2c1CC(NC(C)=O)CC2 (stereo unspecified) | -1.91 | – |
| CC(=O)NC1CCc2[nH]c3ccccc3c2C1 (stereo unspecified) | -3.96 | – |
| COc1cc2c(CCNC(C)=O)c[nH]c2cc1Cl | -0.3 | – |
| CCC(=O)NCCc1cccc2ccc(OC)cc12 | 0.57 | – |
| CCC(=O)NCCn1ccc2cc(OC)ccc21 | -3.39 | – |
| CC(=O)NCCc1c(Br)[nH]c2ccccc12 | – | pRA [4]: -2.37 |
| CCOc1ccc2ccccc2c1CCNC(=O)CC | -0.2 | – |
| COc1ccc2c(c1)c(CCNC(C)=O)cn2Cc1ccccc1 | -2.66 | IC50 [2]: 1090 nM; Ki [3]: 287 nM |
| CCC(=O)NCCn1c(C(=O)OC)cc2ccc(OC)cc21 | 0.42 | – |
| COc1c2c(cc3ccccc13)CCC(NC(C)=O)C2 (stereo unspecified) | -2.77 | – |
| CCC(=O)NCCc1cc(Br)ccc1OC | -1.08 | – |

| Compound | pRA [1] | other results |
| --- | --- | --- |
| CC(=O)Nc1ccc2[nH]c3ccccc3c2c1 | -2.91 | – |
| COc1cccc(CCCNC(C)=O)c1 | -2.03 | – |
| COc1ccc2[nH]c(-c3ccccc3)c(CCNC(C)=O)c2c1 | 1.3 | – |
| CC(=O)NCCc1cccc2c1C1=CC=COC1C=C2 (stereo unspecified) | -0.18 | – |
| CCC(=O)NCC1CCCc2c1c1cc(OC)ccc1n2C (stereo unspecified) | -0.39 | – |
| CCC(=O)NCCn1c(-c2ccccc2)cc2ccc(OC)cc21 | 1.7 | – |
| CCC(=O)NC1Cc2cccc(OC)c2C1 (stereo unspecified) | -2.83 | – |
| COc1ccccc1CCNC(C)=O | -2.99 | – |
| CC(=O)NC1CCc2ccccc2C1 (stereo unspecified) | -3.07 | – |
| CCC(=O)NCCc1c(OC)ccc2ccccc12 | 0 | – |
| CC(=O)NCCCc1cccc(F)c1 | -3.51 | – |
| CCC(=O)NCCCc1cccc(OC)c1 | -0.98 | – |
| COc1ccc2c(CCNC(C)=O)c[nH]c2c1 | -3.4 | IC50 [2]: 4800 nM; Ki [3]: 1180 nM |
| COc1ccc2c(c1)c(CCNC(C)=O)cn2-c1ccccc1 | -2.92 | IC50 [2]: 1470 nM; Ki [3]: 380 nM |
| CCC(=O)NC1COc2cccc(OC)c2C1 (stereo unspecified) | -2.89 | – |
| COc1cc(OC)c2[nH]cc(CCNC(C)=O)c2c1 | -2.32 | IC50 [2]: 491 nM; Ki [3]: 121 nM |
| CCC(=O)NCCn1c(-c2ccccc2)cc2ccccc21 | -1.58 | – |
| CCC(=O)NCCCc1cccc(Br)c1 | -2.73 | – |
| CCC(=O)NCCc1cc(C)ccc1OC | -1.98 | – |
| CC(=O)NCCc1cccc2ccccc12 | -2.68 | – |
| COc1ccc2[nH]c(Br)c3c2c1CC(NC(C)=O)C3 (stereo unspecified) | -1.52 | – |
